{"source": "patent US9725477B2", "about": "“Platinum compounds of malonic acid derivative having leaving group containing amino or alkylamino” (BEIJING FSWELCOME TECHNOLOGY DEVELOPMENT CO., LTD, priority 2012, dated 2017)", "key": {"normal mice": {"system": "normal mice", "experiment": "in vivo", "conditions": "Table 3; mice, single intravenous administration, 14 days observation", "experimental": "(§1) Kunming mice with 4˜6 weeks old and 18 g˜22 g by weight were taken, 50% males and 50% females. […] The condition of mortality and toxicity were observed after administration. Totally observing for 14 days, LD50 value was calculated using Bliss method according to the mortality."}, "Lung cancer H292": {"system": "Lung cancer H292", "experiment": "MTT cytotoxicity, lung cancer H292", "assay_type": "cell-based", "description": "(§2) Cell morphologies were observed after being cultivated for 24 hours."}, "[1]": {"system": "Alveolar epithelial cells BEAS-2B", "experiment": "MTT cytotoxicity, alveolar epithelial cells BEAS-2B", "assay_type": "cell-based", "description": "as §2"}, "Lung cancer Lewis": {"system": "Lung cancer Lewis", "experiment": "MTT cytotoxicity, lung cancer Lewis", "assay_type": "cell-based", "description": "as §2"}, "colon cancer SW480": {"system": "colon cancer SW480", "experiment": "MTT cytotoxicity, colon cancer SW480", "assay_type": "cell-based", "description": "as §2"}, "in vivo": {"experiment": "in vivo", "conditions": "both, Kunming, mouse, in vivo, iv", "experimental": "as §1"}, "[2]": {"experiment": "MTT cytotoxicity, alveolar epithelial cells BEAS-2B", "assay_type": "cell-based", "conditions": "human, BEAS-2B alveolar epithelial cells; Alveolar epithelial cells BEAS-2B, MTT, n = 6", "description": "as §2"}, "Testis cell ST": {"system": "Testis cell ST", "experiment": "MTT cytotoxicity, testis cell ST", "assay_type": "cell-based", "conditions": "n = 6", "description": "as §2"}, "gastric cancer MGC803": {"system": "gastric cancer MGC803", "experiment": "MTT cytotoxicity, gastric cancer MGC803", "assay_type": "cell-based", "conditions": "n = 6", "description": "as §2"}, "Esophagus cancer ECA109": {"system": "Esophagus cancer ECA109", "experiment": "MTT cytotoxicity, esophagus cancer ECA109", "assay_type": "cell-based", "conditions": "n = 6", "description": "as §2"}, "[3]": {"conditions": "Lung cancer H292, MTT, n = 6, read-out: cytotoxicity IC50"}, "[4]": {"conditions": "compound of the example (salt form) in water"}}, "note": "Counter-ions that a name gives are not always drawn. Like-named read-outs stand apart in the source and are kept apart here.", "data": [{"compound": "2-(4-di-n-propylaminobutyl)-malonate•cis-diamine platinum (II) phosphate [Compound 7]", "values": [{"measurement": "LD50 vALUE", "setting": "normal mice", "result": 0.778, "unit": "mmol/kg"}, {"measurement": "IC50", "setting": "Lung cancer H292", "result": 4, "unit": "µM"}, {"measurement": "IC50", "setting": "[1]", "result": 4, "unit": "µM"}, {"measurement": "IC50", "setting": "Lung cancer Lewis", "result": 21, "unit": "µM"}, {"measurement": "IC50", "setting": "colon cancer SW480", "result": 10, "unit": "µM"}]}, {"compound": "2-(4-ethyl aminobutyl)-malonate•cis-(1, 2-trans-cyclohexanediamine) platinum (II) phosphate [Compound 12]", "values": [{"measurement": "LD50 vALUE", "setting": "normal mice", "result": 0.729, "unit": "mmol/kg"}, {"measurement": "IC50", "setting": "Lung cancer H292", "result": 6, "unit": "µM"}, {"measurement": "IC50", "setting": "[1]", "result": 8, "unit": "µM"}, {"measurement": "IC50", "setting": "Lung cancer Lewis", "result": 18, "unit": "µM"}, {"measurement": "IC50", "setting": "colon cancer SW480", "result": 18, "unit": "µM"}]}, {"compound": "Cc1ccc(S(=O)(=O)O)cc1.O=C1[O][Pt]2([NH]C3CCCCC3[NH]2)[O]C(=O)C1CCCCN1CCCCC1", "note": "(racemic) [Compound 9, 2-(4-(1-piperidyl)-butyl)-malonate•cis-(1,2-trans-cyclohexanediamine) platinum (II) tosilate]", "values": [{"measurement": "LD50 vALUE", "setting": "normal mice", "result": 0.725, "unit": "mmol/kg"}, {"measurement": "IC50", "setting": "Lung cancer H292", "result": 8, "unit": "µM"}, {"measurement": "IC50", "setting": "[1]", "result": 2, "unit": "µM"}, {"measurement": "IC50", "setting": "Lung cancer Lewis", "result": 50, "unit": "µM"}, {"measurement": "IC50", "setting": "colon cancer SW480", "result": 14, "unit": "µM"}]}, {"compound": "NCCCCC1C(=O)[O][Pt]2([NH]C3CCCCC3[NH]2)[O]C1=O.O=P(O)(O)O", "note": "(racemic) [Compound 11, 2-(4-aminobutyl)-malonate•cis-(1,2-trans-cyclohexanediamine) platinum (II) phosphate]", "values": [{"measurement": "LD50 vALUE", "setting": "normal mice", "result": 0.803, "unit": "mmol/kg"}, {"measurement": "IC50", "setting": "Lung cancer H292", "result": 5, "unit": "µM"}, {"measurement": "IC50", "setting": "[1]", "result": 2, "unit": "µM"}, {"measurement": "IC50", "setting": "Lung cancer Lewis", "result": 49, "unit": "µM"}, {"measurement": "IC50", "setting": "colon cancer SW480", "result": 21, "unit": "µM"}]}, {"compound": "CCN(CC)CCCCC1C(=O)[O][Pt]2([NH]C3CCCC3[NH]2)[O]C1=O.O=P(O)(O)O", "note": "(racemic) [Compound 14, 2-(4-diethylaminobutyl)-malonate•cis-(1,2-trans-cyclopentanediamine) platinum (II) phosphate]", "values": [{"measurement": "LD50 vALUE", "setting": "normal mice", "result": 0.866, "unit": "mmol/kg"}, {"measurement": "IC50", "setting": "Lung cancer H292; [3]", "result": 12, "unit": "µM"}, {"measurement": "IC50", "setting": "[1]; Alveolar epithelial cells BEAS-2B, MTT, n = 6, read-out: cytotoxicity IC50", "result": 5, "unit": "µM"}, {"measurement": "IC50", "setting": "Lung cancer Lewis; Lung cancer Lewis, MTT, n = 6, read-out: cytotoxicity IC50", "result": 36, "unit": "µM"}, {"measurement": "IC50", "setting": "colon cancer SW480; colon cancer SW480, MTT, n = 6, read-out: cytotoxicity IC50", "result": 17, "unit": "µM"}, {"measurement": "solubility", "setting": "Solubility in water; [4]", "result": "more than 300 mg/ml"}]}, {"compound": "CCN(CC)CCCCC1C(=O)[O][Pt]([NH2])([NH2])[O]C1=O", "note": "[Compound 1, 2-(4-diethylaminobutyl)-malonate•cis-diamine platinum (II) acetate]", "values": [{"measurement": "LD50", "setting": "in vivo", "result": 746, "unit": "µmol/kg"}, {"measurement": "solubility", "setting": "Solubility in water; water", "result": "> 300", "unit": "mg/mL"}]}, {"compound": "[NH2][Pt]1([NH2])[O]C(=O)C(CCCCN2CCCCC2)C(=O)[O]1", "note": "[Compound 4, 2-(4-(1-piperidyl)-butyl)-malonate•cis-diamine platinum (II) phosphate]", "values": [{"measurement": "LD50", "setting": "in vivo", "result": 823, "unit": "µmol/kg"}, {"measurement": "solubility", "setting": "Solubility in water; water", "result": "> 300", "unit": "mg/mL"}]}, {"compound": "[NH2][Pt]1([NH2])[O]C(=O)C(CCCCN2CCCC2)C(=O)[O]1", "note": "[Compound 5, 2-(4-(1-tetrahydropyrrolidinyl)-butyl)-malonate•cis-diamine platinum (II) phosphate]", "values": [{"measurement": "LD50", "setting": "in vivo", "result": 845, "unit": "µmol/kg"}, {"measurement": "IC50", "setting": "[2]", "result": 2, "unit": "µM"}, {"measurement": "solubility", "setting": "Solubility in water; water", "result": "> 300", "unit": "mg/mL"}]}, {"compound": "CN(C)C1CC(C2C(=O)[O][Pt]([NH2])([NH2])[O]C2=O)C1", "note": "(stereo not drawn) [Compound 6, 2-(3-dimethylaminocyclobutyl)-malonate•cis-diamine platinum (II) mesylate]", "values": [{"measurement": "LD50", "setting": "in vivo", "result": 756, "unit": "µmol/kg"}, {"measurement": "IC50", "setting": "[2]", "result": 3, "unit": "µM"}, {"measurement": "solubility", "setting": "Solubility in water; water", "result": "> 300", "unit": "mg/mL"}]}, {"compound": "CCN(CC)CC(C)CCC1C(=O)[O][Pt]([NH2])([NH2])[O]C1=O", "note": "(stereo not drawn) [Compound 8, 2-(3-methyl-4-diethylaminobutyl)-malonate•cis-diamine platinum (II) acetate]", "values": [{"measurement": "LD50", "setting": "in vivo", "result": 801, "unit": "µmol/kg"}, {"measurement": "IC50", "setting": "[2]", "result": 5, "unit": "µM"}, {"measurement": "solubility", "setting": "Solubility in water; water", "result": "> 300", "unit": "mg/mL"}]}, {"compound": "CCN(CC)CCCCC1C(=O)[O][Pt][O]C1=O.NC1CCC(N)CC1.O=P(O)(O)O", "note": "[Compound 23, 2-(4-diethylaminobutyl)-malonate•cis-1,4-cyclohexanediamine platinum (II) phosphate]", "values": [{"measurement": "IC50", "setting": "Lung cancer H292; [3]", "result": 14, "unit": "µM"}, {"measurement": "IC50", "setting": "Testis cell ST", "result": 8, "unit": "µM"}, {"measurement": "IC50", "setting": "gastric cancer MGC803", "result": 5, "unit": "µM"}, {"measurement": "IC50", "setting": "Esophagus cancer ECA109", "result": 66, "unit": "µM"}, {"measurement": "solubility", "setting": "Solubility in water; [4]", "result": "more than 300 mg/ml"}]}, {"compound": "CCN(CC)CCCCC1C(=O)[O][Pt]2([NH]CC3(CCOCC3)C[NH]2)[O]C1=O.O=P(O)(O)O", "note": "[Compound 24, 2-(4-diethylaminobutyl)-malonate•cis-1,3-(2,2-(4-oxacyclohexyl))-propanediamine•platinum (II) phosphate]", "values": [{"measurement": "IC50", "setting": "Lung cancer H292; [3]", "result": 3, "unit": "µM"}, {"measurement": "IC50", "setting": "Testis cell ST", "result": 6, "unit": "µM"}, {"measurement": "IC50", "setting": "gastric cancer MGC803", "result": 3, "unit": "µM"}, {"measurement": "IC50", "setting": "Esophagus cancer ECA109", "result": 52, "unit": "µM"}, {"measurement": "solubility", "setting": "Solubility in water; [4]", "result": "more than 300 mg/ml"}]}]}
